We go through 24 compounds from ChEMBL document CHEMBL5634137, “2,4-Diacetylphloroglucinol (DAPG) derivatives rapidly eradicate methicillin-resistant staphylococcus aureus without resistance development by disrupting membrane” (Eur J Med Chem, 2023).

Data set [1] deals with Staphylococcus aureus. As to the kind of experiment: Bactericidal activity against methicillin-resistant Staphylococcus aureus ATCC 3392 assessed as inhibition of bacterial growth incubated for 24 hrs by broth dilution method. The class given is functional. A general note: In broth dilution the organism is exposed to a series of concentrations in liquid medium.
In data set [2] the test system is Staphylococcus aureus. As to the kind of experiment: Selectivity index, ratio of MBC for bactericidal against methicillin-resistant Staphylococcus aureus ATCC 3392 to MIC for antibacterial activity against methicillin-resistant Staphylococcus aureus ATCC 3392. Format: functional.
Data set [3] relates to Staphylococcus aureus. As to the kind of experiment: Selectivity index, ratio of MBC for bactericidal against methicillin-resistant Staphylococcus aureus ATCC 4330 to MIC for antibacterial activity against methicillin-resistant Staphylococcus aureus ATCC 4330. Format: functional.
The test system of data set [4] is Staphylococcus aureus. As to the kind of experiment: Antibacterial activity against Methicillin-resistant Staphylococcus aureus USA300 assessed as inhibition of bacterial growth incubated for 24 hrs by broth dilution method. The class given is functional.
Data set [5] relates to Staphylococcus aureus. The data set can be described thus: Antibacterial activity against methicillin-resistant Staphylococcus aureus ATCC 3392 assessed as inhibition of bacterial growth incubated for 24 hrs by broth dilution method. The class given is functional.
The test system of a further data set is Pseudomonas aeruginosa. As to the kind of experiment: Antibacterial activity against Pseudomonas aeruginosa […] assessed as inhibition of bacterial growth incubated for 24 hrs by broth dilution method. Format: functional.
A further data set has as its system Klebsiella pneumoniae. As to the kind of experiment: Antibacterial activity against Klebsiella pneumoniae […] assessed as inhibition of bacterial growth incubated for 24 hrs by broth dilution method. The class given is functional.
In another data set the test system is Escherichia coli. The data set can be described thus: Antibacterial activity against Escherichia coli ATCC 11775 assessed as inhibition of bacterial growth incubated for 24 hrs by broth dilution method. The class given is functional.
For data set [6], the system named is Staphylococcus aureus. As to the kind of experiment: Bactericidal against methicillin-resistant Staphylococcus aureus ATCC 4330 assessed as inhibition of bacterial growth incubated for 24 hrs by broth dilution method. Format: functional.
Data set [7] concerns Staphylococcus aureus. The data set can be described thus: Antibacterial activity against methicillin-resistant Staphylococcus aureus ATCC 4330 assessed as inhibition of bacterial growth incubated for 24 hrs by broth dilution method. Format: functional.
Data set [8] is described as follows: Cytotoxicity against human L02 cells assessed as survival rate incubated for 24 hrs by MTT assay. Also on record: concentration or dose not given beside the values. Particulars: read-out: Survival. Format: toxicity, cell-based. Background: Formazan colour is commonly taken as a measure of viable cells.
A short description of data set [9]: Cytotoxicity against mouse RAW264.7 cells assessed as survival rate incubated for 24 hrs by MTT assay. Also on record: concentration or dose not given beside the values. Particulars: read-out: Survival. Format: toxicity, cell-based.

Each structure is given as a SMILES string. In brackets after ≈: the same amount, converted by molar mass.

Consider `O=C(c1c(O)cc(O)c(C(=O)C2CCC2)c1O)C1CCC1`, for which the MBC – broadly, the lowest tested concentration that kills the bacteria rather than only halting them – in the data set on Staphylococcus aureus [1] came out at 8 µg/mL (≈ 27.6 µM); with Staphylococcus aureus [6] it was 4 µg/mL (≈ 13.8 µM). Further, the figures for the “Selectivity Index” value in the data set on Staphylococcus aureus [2] and in the data set with Staphylococcus aureus [3] were 4 and 2, respectively. Moreover, the MIC (as a rule, the lowest concentration found to suppress growth) is 1 µg/mL (≈ 3.44 µM) in the data set with Staphylococcus aureus [4]; 2 µg/mL (≈ 6.89 µM) in the data set with Staphylococcus aureus [5]; above 64 µg/mL in the data set on Pseudomonas aeruginosa; above 64 µg/mL in the data set on Klebsiella pneumoniae; 64 µg/mL (≈ 220 µM) in the data set with Escherichia coli; 2 µg/mL (≈ 6.89 µM) with Staphylococcus aureus [7].

For the compound `CC(=O)c1c(O)cc(O)c(C(C)=O)c1O`, the values for the MBC in the data set with Staphylococcus aureus [1] and in the data set on Staphylococcus aureus [6] were 64 µg/mL (≈ 304 µM) and 32 µg/mL (≈ 152 µM), respectively. Moreover, the “Selectivity Index” value with Staphylococcus aureus [2] worked out at 16; in the data set on Staphylococcus aureus [3], 4. Also, the MIC in the data set with Staphylococcus aureus [4] is 8 µg/mL (≈ 38.1 µM); in the data set on Staphylococcus aureus [5], 4 µg/mL (≈ 19 µM); in the data set with Pseudomonas aeruginosa, above 64 µg/mL; with Klebsiella pneumoniae, above 64 µg/mL; in the data set on Escherichia coli it was above 64 µg/mL; in the data set on Staphylococcus aureus [7], 8 µg/mL (≈ 38.1 µM).

In the case of `CCC(C)C(=O)c1c(O)cc(O)cc1O` (stereo not given), the results for the MIC with Staphylococcus aureus [5] and with Staphylococcus aureus [7] were above 64 µg/mL and 32 µg/mL (≈ 152 µM), respectively.

`CCCCCCCCC(=O)c1c(O)cc(O)c(C(=O)CCCCCCCC)c1O`: the MIC in the data set with Staphylococcus aureus [5] worked out at 4 µg/mL (≈ 9.84 µM); in the data set with Staphylococcus aureus [7], 2 µg/mL (≈ 4.92 µM).

In the case of `CCCCC(=O)c1c(O)cc(O)c(C(=O)CC(C)(C)C)c1O`, the MBC in the data set with Staphylococcus aureus [1] and with Staphylococcus aureus [6] was 4 µg/mL (≈ 13 µM) throughout. In addition, the viability at 24 h in [8] amounted to 75%; in data set [9], 76%. For the same compound, the “Selectivity Index” value with Staphylococcus aureus [3] is on record as 8. In addition, the MIC with Staphylococcus aureus [4] was 0.5 µg/mL (≈ 1.62 µM); in the data set on Staphylococcus aureus [5], 0.5 µg/mL (≈ 1.62 µM); in the data set with Pseudomonas aeruginosa, above 64 µg/mL; with Klebsiella pneumoniae, above 64 µg/mL; with Escherichia coli it was above 64 µg/mL; with Staphylococcus aureus [7], 0.5 µg/mL (≈ 1.62 µM).

In the case of `CCCCC(=O)c1c(O)cc(O)c(C(=O)CCCC)c1O`, the results for the MBC in the data set on Staphylococcus aureus [1] and in the data set with Staphylococcus aureus [6] were 4 µg/mL (≈ 13.6 µM) and 2 µg/mL (≈ 6.79 µM), respectively. Besides, the MIC in the data set with Staphylococcus aureus [4] is 0.5 µg/mL (≈ 1.7 µM); in the data set with Staphylococcus aureus [5], 2 µg/mL (≈ 6.79 µM); in the data set on Pseudomonas aeruginosa, above 64 µg/mL; with Klebsiella pneumoniae, above 64 µg/mL; with Escherichia coli it was 64 µg/mL (≈ 217 µM); with Staphylococcus aureus [7] it was 2 µg/mL (≈ 6.79 µM).

As to `CCCCC(=O)c1c(O)cc(O)c(C(C)=O)c1O`, the MIC with Staphylococcus aureus [5] stood at 8 µg/mL (≈ 31.7 µM); with Staphylococcus aureus [7] it was 4 µg/mL (≈ 15.9 µM).

For the compound `O=C(c1c(O)cc(O)c(C(=O)C2CCCCC2)c1O)C1CCCCC1`, the results for the MBC in the data set with Staphylococcus aureus [1] and in the data set with Staphylococcus aureus [6] were 2 µg/mL (≈ 5.77 µM) and 8 µg/mL (≈ 23.1 µM), respectively. Moreover, the figures for the “Selectivity Index” value with Staphylococcus aureus [2] and with Staphylococcus aureus [3] were 4 and 8, respectively. Besides, the MIC is 0.5 µg/mL (≈ 1.44 µM) in the data set with Staphylococcus aureus [4]; 0.5 µg/mL (≈ 1.44 µM) in the data set with Staphylococcus aureus [5]; above 64 µg/mL with Pseudomonas aeruginosa; above 64 µg/mL in the data set on Klebsiella pneumoniae; above 64 µg/mL with Escherichia coli; 1 µg/mL (≈ 2.89 µM) in the data set with Staphylococcus aureus [7].

For `O=C(Cc1ccccc1)c1c(O)cc(O)c(C(=O)Cc2ccccc2)c1O`, the MBC in the data set on Staphylococcus aureus [1] and with Staphylococcus aureus [6] was 8 µg/mL (≈ 22.1 µM) in each case. Also, the “Selectivity Index” value with Staphylococcus aureus [2] is 8. For the same compound, the MIC with Staphylococcus aureus [4] is 1 µg/mL (≈ 2.76 µM); with Staphylococcus aureus [5], 1 µg/mL (≈ 2.76 µM); in the data set on Pseudomonas aeruginosa it was above 64 µg/mL; with Klebsiella pneumoniae it was above 64 µg/mL; in the data set with Escherichia coli, 64 µg/mL (≈ 177 µM); in the data set on Staphylococcus aureus [7] it was 0.5 µg/mL (≈ 1.38 µM).

As for `CCCCCC(=O)c1c(O)cc(O)c(C(=O)CCCCC)c1O`, the MBC in the data set with Staphylococcus aureus [1] and with Staphylococcus aureus [6] was 2 µg/mL (≈ 6.2 µM) each time. Further, the “Selectivity Index” value in the data set on Staphylococcus aureus [2] and in the data set with Staphylococcus aureus [3] was 4 each time. The MIC is 0.5 µg/mL (≈ 1.55 µM) in the data set on Staphylococcus aureus [4]; 0.5 µg/mL (≈ 1.55 µM) in the data set on Staphylococcus aureus [5]; above 64 µg/mL in the data set with Pseudomonas aeruginosa; above 64 µg/mL with Klebsiella pneumoniae; above 64 µg/mL in the data set with Escherichia coli; 0.5 µg/mL (≈ 1.55 µM) in the data set with Staphylococcus aureus [7].

Turning to `CCCCCCCCCC(=O)c1c(O)cc(O)cc1O`, the MIC in the data set with Staphylococcus aureus [5] and in the data set on Staphylococcus aureus [7] was 32 µg/mL (≈ 114 µM) each time.

For `O=C(c1c(O)cc(O)cc1O)C1CC1`, the figures for the MIC in the data set with Staphylococcus aureus [5] and in the data set on Staphylococcus aureus [7] were 32 µg/mL (≈ 165 µM) and 16 µg/mL (≈ 82.4 µM), respectively.

`CCCCCCCC(=O)c1c(O)cc(O)c(C(=O)CCCCCCC)c1O`: the MBC turned out to be 2 µg/mL (≈ 5.28 µM) in the data set on Staphylococcus aureus [1] and 1 µg/mL (≈ 2.64 µM) in the data set with Staphylococcus aureus [6]. The “Selectivity Index” value in the data set on Staphylococcus aureus [2] and in the data set with Staphylococcus aureus [3] was 1 in each case. Also, the MIC in the data set on Staphylococcus aureus [4] was 2 µg/mL (≈ 5.28 µM); in the data set on Staphylococcus aureus [5] it was 2 µg/mL (≈ 5.28 µM); in the data set on Pseudomonas aeruginosa, above 64 µg/mL; with Klebsiella pneumoniae it was above 64 µg/mL; in the data set with Escherichia coli, above 64 µg/mL; in the data set with Staphylococcus aureus [7] it was 1 µg/mL (≈ 2.64 µM).

For `O=C(c1c(O)cc(O)cc1O)C1CCC1`, the MIC with Staphylococcus aureus [5] and in the data set on Staphylococcus aureus [7] was 32 µg/mL (≈ 154 µM) throughout.

Consider `CCCCCCCCCCCCCCCC(=O)c1c(O)cc(O)cc1O`, for which the MIC in the data set with Staphylococcus aureus [5] and in the data set with Staphylococcus aureus [7] was above 64 µg/mL each time.

Regarding `O=C(c1c(O)cc(O)cc1O)C1CCCC1`, the MIC with Staphylococcus aureus [5] and with Staphylococcus aureus [7] was 64 µg/mL (≈ 288 µM) in each case.

As to `COc1cc(OC)c(C(C)=O)c(O)c1C(C)=O`, the minimal inhibitory concentration (MIC) with Staphylococcus aureus [5] and with Staphylococcus aureus [7] was above 64 µg/mL in each case.

In the case of `CC(=O)c1c(O)cc(O)cc1O` [2,4,6-TRIHYDROXYACETOPHENONE], the MIC with Staphylococcus aureus [5] and in the data set on Staphylococcus aureus [7] was above 64 µg/mL throughout.

Turning to `CCCC(=O)c1c(O)cc(O)cc1O`, the MIC in the data set on Staphylococcus aureus [5] and in the data set on Staphylococcus aureus [7] was above 64 µg/mL in each case.

As for `CCCCC(=O)c1c(O)cc(O)cc1O`, the MIC with Staphylococcus aureus [5] and with Staphylococcus aureus [7] was above 64 µg/mL each time.

Regarding `O=C(c1c(O)cc(O)c(C(=O)C2CC2)c1O)C1CC1`, the MIC with Staphylococcus aureus [5] and with Staphylococcus aureus [7] was 8 µg/mL (≈ 30.5 µM) each time.

Consider `O=Cc1c(O)cc(O)cc1O` [PHLOROGLUCINALDEHYDE], for which the minimal inhibitory concentration (MIC) in the data set on Staphylococcus aureus [5] and in the data set on Staphylococcus aureus [7] was above 64 µg/mL each time.

On to `CCCCCCCCC(=O)c1c(O)cc(O)cc1O`, for which the minimal inhibitory concentration (MIC) in the data set on Staphylococcus aureus [5] and with Staphylococcus aureus [7] was 8 µg/mL (≈ 30 µM) in each case.

Regarding `CC(C)CCC(=O)c1c(O)cc(O)cc1O`, the MIC in the data set on Staphylococcus aureus [5] is 64 µg/mL (≈ 285 µM); in the data set on Staphylococcus aureus [7], 32 µg/mL (≈ 143 µM).
